The subject of the test is Plasmodium berghei. Description: Luciferase/luciferin-expressing antifolate-resistant parasites were used to infect a culture of HepG2 cells that were pre-incubated with compounds. Infected hepatocytes emit light due to the luciferase reaction. Assay results are presented as the percent inhibition of light emission compared to control. […]. The format is functional. The conditions noted are these: sporozoite; for IC90: read-out: LUCIFERASE INFECTION ASSAY - IC90.

[1] abbreviates: read-out: LUCIFERASE INFECTION ASSAY - IC50.

Bounds are passed on as bounds.

One may read the IC50 as the point on the concentration scale where inhibition reaches its midpoint. As usually defined, the IC90 is the point of the concentration-response curve where the effect stands at 90%. In the case of `CCOC(=O)C1=C(c2ccccc2)N=C(N)NC1c1ccc(OCc2ccc(Cl)cc2)c(OC)c1` (stereo not given), the IC90 was more than 10 µM. For the same compound, the IC50 (PBLUC_HILL_SLOPE 5.7, PBLUC_R_SQUARED 0.538, read-out: LUCIFERASE INFECTION ASSAY - IC50) was found to be 7.1 µM.
Regarding `O=C(Nc1ccc(-c2nc3ccccc3[nH]2)cc1)C1CCCO1` (stereo not given), the IC90 is more than 10 µM. Moreover, under setting [1], the IC50 is more than 10 µM.
With `CCOc1ccc(OCC)c(S(=O)(=O)Oc2cccc3cccnc23)c1`, the IC90 was determined as 7.66 µM. Further, under “HEPG2TOX_HILL_SLOPE 2.73, HEPG2TOX_R_SQUARED 0.737, PBLUC_HILL_SLOPE 3.92, PBLUC_R_SQUARED 0.473, read-out: LUCIFERASE INFECTION ASSAY - IC50”, the IC50 is 4.37 µM.
As for `O=C(OCc1csc(-c2ccccc2)n1)c1ccccc1Sc1ccc(C(F)(F)F)cc1[N+](=O)[O-]`, the IC90 is more than 10 µM. Moreover, under setting [1], the IC50 was more than 10 µM.
`CC(C)NC(=O)c1c(NC(=O)c2cccc(C(F)(F)F)c2)nc2ccccn12`: the IC90 is 0.971 µM. The IC50 (FFLUC_HILL_SLOPE 39.4, FFLUC_R_SQUARED 0.293, HEPG2TOX_HILL_SLOPE 0.926, HEPG2TOX_R_SQUARED 0.794, PBLUC_HILL_SLOPE 4.31, PBLUC_R_SQUARED 0.785, read-out: LUCIFERASE INFECTION ASSAY - IC50) is 0.583 µM.
Regarding `Fc1ccc(-c2csc3ncnc(NC4CCN(Cc5ccccc5)C4)c23)cc1` (stereo not given), the IC90 was more than 10 µM. Moreover, the IC50 (PBLUC_HILL_SLOPE 12.7, PBLUC_R_SQUARED 0.103, read-out: LUCIFERASE INFECTION ASSAY - IC50) was found to be 9.17 µM.
Consider `Cc1ccc(C(C)C)c(OCc2nnnn2-c2ccc(Br)cc2)c1`, for which the IC90 was more than 8.52 µM. For the same compound, under setting [1], the IC50 was determined as 4.96 µM.
The corresponding values for `COC(=O)c1ccc2c(=O)n(-c3ccccc3)c(SCC3CCCCO3)nc2c1` (stereo not given) are more than 10 µM and more than 10 µM.
Consider `Oc1ccc2ccccc2c1/C=N/Nc1nnc(-c2ncc[nH]2)c2ccccc12`, for which the IC90 turned out to be 4.64 µM. In addition, the IC50 (HEPG2TOX_HILL_SLOPE 2.06, HEPG2TOX_R_SQUARED 0.877, PBLUC_HILL_SLOPE 10.4, PBLUC_R_SQUARED 0.915, read-out: LUCIFERASE INFECTION ASSAY - IC50) stood at 3.76 µM.
As to `OC1(c2ccccc2)c2ccccc2-c2ccccc21`, the IC90 is more than 12.8 µM. The IC50 under setting [1] came to 7.15 µM.
Consider `COc1ccccc1-c1ccc2ncc(-c3cccc(NC(C)=O)c3)n2n1`, for which the IC90 is more than 10 µM. For the same compound, the IC50 (HEPG2TOX_HILL_SLOPE 1.56, HEPG2TOX_R_SQUARED 0.888, PBLUC_HILL_SLOPE 1.15, PBLUC_R_SQUARED 0.442, read-out: LUCIFERASE INFECTION ASSAY - IC50) is 4.22 µM.
For the compound `CN1CCN(c2ccc(-c3cn4c(-c5cccc(OC(F)(F)F)c5)cnc4cn3)cn2)CC1`, the IC90 was more than 7.26 µM. For the same compound, the IC50 (PBLUC_HILL_SLOPE 2.39, PBLUC_R_SQUARED 0.449, read-out: LUCIFERASE INFECTION ASSAY - IC50) came to 5.98 µM.
For `O=C(c1cnc2cc3c(cc2c1)OCCCO3)c1ccccc1O`, the 90% effect concentration (IC90) was 5.25 µM. For the same compound, for the setting “FFLUC_HILL_SLOPE 1.6, FFLUC_R_SQUARED 0.767, HEPG2TOX_HILL_SLOPE 8.36, HEPG2TOX_R_SQUARED 0.65, PBLUC_HILL_SLOPE 1.47, PBLUC_R_SQUARED 0.802, read-out: LUCIFERASE INFECTION ASSAY - IC50”, the IC50 worked out at 1.17 µM.
Consider `NC1=C(c2ccccc2)C(=O)c2ccccc21`, for which the IC90 is more than 14.9 µM. Further, the IC50 (PBLUC_HILL_SLOPE 3.17, PBLUC_R_SQUARED 0.165, read-out: LUCIFERASE INFECTION ASSAY - IC50) is more than 14.9 µM.
Take `CC(Oc1ccc(C(=O)c2ccc(F)cc2)cc1)C(=O)NC1(C#N)CCCCC1` (stereo not given): the IC90 is more than 10 µM. Also, for the setting “HEPG2TOX_HILL_SLOPE 6.49, HEPG2TOX_R_SQUARED 0.548, PBLUC_HILL_SLOPE 2.92, PBLUC_R_SQUARED 0.383, read-out: LUCIFERASE INFECTION ASSAY - IC50”, the IC50 turned out to be 7.61 µM.
As for `O=S(=O)(c1ccccc1)c1nc(/C=C/c2ccccc2)oc1NCc1ccco1`, the IC90 is more than 10 µM. The IC50 (PBLUC_HILL_SLOPE 2.89, PBLUC_R_SQUARED 0.0298, read-out: LUCIFERASE INFECTION ASSAY - IC50) was 5.62 µM.
In the case of `Cc1ccc(NS(=O)(=O)c2ccc(C(=O)Nc3ncccc3O)cc2)cc1C`, the IC90 came to 1.88 µM. Further, the IC50 (FFLUC_HILL_SLOPE 12.3, FFLUC_R_SQUARED 0.189, HEPG2TOX_HILL_SLOPE 11.2, HEPG2TOX_R_SQUARED 0.187, PBLUC_HILL_SLOPE 1.78, PBLUC_R_SQUARED 0.764, read-out: LUCIFERASE INFECTION ASSAY - IC50) stood at 0.549 µM.
For `CCc1cccc2c(C(=O)CN3CCC(C(=O)N4CCCCCC4)CC3)c[nH]c12`, the IC90 is more than 10 µM. For the same compound, the IC50 (PBLUC_HILL_SLOPE 1.3, PBLUC_R_SQUARED 0.149, read-out: LUCIFERASE INFECTION ASSAY - IC50) was more than 10 µM.
In the case of `COc1ccc(NC(=O)C2(C)Cc3c(-c4cccc(NC(C)=O)c4)ccnc3O2)cc1` (stereo not given), the IC90 was found to be 3.58 µM. Besides, the IC50 (HEPG2TOX_HILL_SLOPE 2.96, HEPG2TOX_R_SQUARED 0.838, PBLUC_HILL_SLOPE 2.85, PBLUC_R_SQUARED 0.605, read-out: LUCIFERASE INFECTION ASSAY - IC50) turned out to be 1.66 µM.
Take `CN(C)c1cccc(-c2cnc3sc(NCCc4ccc(S(N)(=O)=O)cc4)nn23)c1`: the IC90 is more than 7.46 µM. In addition, the IC50 (FFLUC_HILL_SLOPE 1.97, FFLUC_R_SQUARED 0.664, read-out: LUCIFERASE INFECTION ASSAY - IC50) is more than 7.46 µM.
Consider `COc1ccccc1-c1cnn2ccc(Nc3ccccc3)nc12`, for which the IC90 is 2.14 µM. For the same compound, the IC50 (HEPG2TOX_HILL_SLOPE 8.7, HEPG2TOX_R_SQUARED 0.948, PBLUC_HILL_SLOPE 3.38, PBLUC_R_SQUARED 0.62, read-out: LUCIFERASE INFECTION ASSAY - IC50) was 1.12 µM.
Turning to `COc1ccc(Nc2c(Cl)cc(OC)cc2Cl)cc1`, the IC90 came out at 3.85 µM. Also, for the setting “HEPG2TOX_HILL_SLOPE 2.37, HEPG2TOX_R_SQUARED 0.991, PBLUC_HILL_SLOPE 4.31, PBLUC_R_SQUARED 0.544, read-out: LUCIFERASE INFECTION ASSAY - IC50”, the IC50 stood at 2.31 µM.
As for `CSc1sc(C(=O)N/N=C/c2ccc(Cl)cc2)c2c1C1(CCC2)SCCS1`, the IC90 was more than 7.25 µM. Further, under setting [1], the IC50 is more than 7.25 µM.
Take `CCC1CCCCN1CC(=O)Nc1cc(C)nn1-c1nc(C)cc(C)n1` (stereo not given): the IC90 is more than 10 µM. The IC50 (HEPG2TOX_HILL_SLOPE 4.29, HEPG2TOX_R_SQUARED 0.929, read-out: LUCIFERASE INFECTION ASSAY - IC50) is more than 10 µM.
Regarding `Cc1ccsc1C(=O)Nc1ccc(N2CCN(C)CC2)cn1`, the IC90 was found to be 0.343 µM. The IC50 under setting [1] was 0.0143 µM.
As for `Cc1ccc2nc(NC(=O)c3ccccc3C(F)(F)F)c(C(=O)NCC(C)C)n2c1`, the IC90 came to 7.86 µM. Under “HEPG2TOX_HILL_SLOPE 8.05, HEPG2TOX_R_SQUARED 0.91, PBLUC_HILL_SLOPE 18.7, PBLUC_R_SQUARED 0.209, read-out: LUCIFERASE INFECTION ASSAY - IC50”, the IC50 was determined as 6.99 µM.
On to `CC(C)(C)c1ccc(OCC(=N)NC(=O)c2ccc(OC(F)(F)F)cc2)cc1`, for which the IC90 is more than 8.37 µM. Moreover, the IC50 under setting [1] is more than 8.37 µM.
In the case of `CCN(CC)c1ccc2cc(/C=N/NC(=O)C34CC5CC(CC(C5)C3)C4)c(=O)oc2c1`, the IC90 was more than 10 µM. The IC50 under setting [1] was more than 10 µM.
As for `CCOC(=O)c1sc(SCc2ccccc2)c2c1CC(c1ccc(C)cc1)CC2O` (stereo not given), the IC90 is more than 7.52 µM. For the same compound, the IC50 (FFLUC_HILL_SLOPE 27.4, FFLUC_R_SQUARED 0.148, read-out: LUCIFERASE INFECTION ASSAY - IC50) is more than 7.52 µM.
In the case of `COc1ccc(OC)c(/C=C/C(=O)N2C(=O)c3cccc(N)c3C2=O)c1`, the IC90 is more than 10 µM. Also, for the setting “HEPG2TOX_HILL_SLOPE 4.32, HEPG2TOX_R_SQUARED 0.934, PBLUC_HILL_SLOPE 15.3, PBLUC_R_SQUARED 0.377, read-out: LUCIFERASE INFECTION ASSAY - IC50”, the IC50 came to 9.46 µM.
For the compound `COc1ccc(C2c3c(C)nn(-c4ccccc4)c3N=C(c3ccccc3F)N2C2CC2)cc1` (stereo not given), the IC90 is more than 10 µM. In addition, the IC50 (HEPG2TOX_HILL_SLOPE 5.27, HEPG2TOX_R_SQUARED 0.234, read-out: LUCIFERASE INFECTION ASSAY - IC50) is more than 10 µM.
In the case of `O=c1c2ccsc2ncn1CCS(=O)(=O)N1CCN(C(c2ccc(F)cc2)c2ccc(F)cc2)CC1`, the IC90 was more than 10 µM. The IC50 (FFLUC_HILL_SLOPE 1.84, FFLUC_R_SQUARED 0.406, PBLUC_HILL_SLOPE 0.263, PBLUC_R_SQUARED 0.514, read-out: LUCIFERASE INFECTION ASSAY - IC50) amounted to 1.49 µM.
On to `CCN(CCO)c1ccc(Nc2cc(C(=O)Nc3ccccc3)ncn2)cc1`, for which the IC90 was 7.92 µM. Moreover, the concentration for half-maximal inhibition (IC50) (HEPG2TOX_HILL_SLOPE 13.5, HEPG2TOX_R_SQUARED 0.28, PBLUC_HILL_SLOPE 1.45, PBLUC_R_SQUARED 0.807, read-out: LUCIFERASE INFECTION ASSAY - IC50) was 1.74 µM.
Regarding `Fc1cccc(-c2cc3c(Nc4ccc5c(c4)OCCO5)nccc3[nH]2)c1`, the IC90 amounted to 7.25 µM. For the same compound, the IC50 (HEPG2TOX_HILL_SLOPE 14.3, HEPG2TOX_R_SQUARED 0.604, PBLUC_HILL_SLOPE 1.45, PBLUC_R_SQUARED 0.727, read-out: LUCIFERASE INFECTION ASSAY - IC50) was 1.59 µM.
Take `Oc1cccc(-c2cnc3cnc(-c4ccco4)cn23)c1`: the IC90 was more than 11.9 µM. Besides, the IC50 (HEPG2TOX_HILL_SLOPE 0.436, HEPG2TOX_R_SQUARED 0.582, PBLUC_HILL_SLOPE 2.53, PBLUC_R_SQUARED 0.573, read-out: LUCIFERASE INFECTION ASSAY - IC50) amounted to 6.72 µM.

Values taken from ChEMBL document CHEMBL4483862, “Open-source discovery of chemical leads for next-generation chemoprotective antimalarials” (2018).
